“And” between values parts separate entries of the source, which are not always exact repeats. Identical values can stand only once.
Experiment: xn = mol fraction of the nth substance listed

CC(C)NC(C)C + CCCCCCCCO
viscosity [mPa·s], 101 kPa
Conditions	298.15 K	303.15 K	308.15 K
x1 = 0.0552	6.422	5.366	4.483
x1 = 0.1034	5.774	4.866	4.045
x1 = 0.1579	5.107	4.286	3.62
x1 = 0.2037	4.51	3.87	3.235
x1 = 0.2551	3.898	3.326	2.826
x1 = 0.3074	3.339	2.871	2.455
x1 = 0.4058	2.441	2.128	1.84
x1 = 0.5058	1.758	1.535	1.352
x1 = 0.606	1.265	1.143	1.046
x1 = 0.7025	0.916	0.84	0.76
x1 = 0.8044	0.664	0.616	0.58
x1 = 0.8545	0.571	0.537	0.502
x1 = 0.8931	0.509	0.487	0.452
x1 = 0.9418	0.442	0.431	0.401

S=C=S + CCOCC
298.15 K, 101 kPa
Conditions	viscosity [mPa·s]
x2 = 0.1341	0.338
x2 = 0.3497	0.306
x2 = 0.6338	0.269

NCc1ccccc1 + CCCCCO
viscosity [mPa·s], 101.33 kPa
Conditions	x1 = 0.1	x1 = 0.2004	x1 = 0.2999	x1 = 0.4	x1 = 0.4997	x1 = 0.6	x1 = 0.7003	x1 = 0.8	x1 = 0.8999
298.15 K	3.257	3.009	2.798	2.599	2.419	2.25	2.088	1.943	1.808
303.15 K	2.82	2.607	2.436	2.25	2.124	1.971	1.842	1.72	1.616
308.15 K	2.406	2.283	2.133	1.979	1.841	1.734	1.624	1.526	1.454

CCCCCCCCCCCO + CCCCCCCCCO
viscosity [mPa·s]
Conditions	x2 = 0.116	x2 = 0.3375	x2 = 0.5442	x2 = 0.7372	x2 = 0.7995	x2 = 0.9152
298.15 K, 101 kPa	–	–	–	–	10.35	–
298.15 K, 101.8 kPa	13.57	12.52	–	–	–	9.874
308.15 K, 101.8 kPa	9.384	8.667	8.041	7.476	–	6.965
318.15 K, 101.8 kPa	6.631	6.157	5.752	5.366	–	5.017

CCC(=O)c1ccccc1 + COCCO
viscosity [mPa·s], 101 kPa
Conditions	x1 = 0.0624	x1 = 0.1302	x1 = 0.2041	x1 = 0.2852	x1 = 0.3744	x1 = 0.4731	x1 = 0.5827	x1 = 0.7054	x1 = 0.8434
303.15 K	1.568	1.562	1.557	1.551	1.545	1.54	1.534	1.529	1.523
308.15 K	1.394	1.398	1.403	1.408	1.414	1.422	1.431	1.442	1.454
313.15 K	1.234	1.246	1.259	1.274	1.292	1.312	1.334	1.359	1.388
318.15 K	1.108	1.125	1.145	1.167	1.192	1.22	1.251	1.287	1.328

O=CN1CCOCC1 + Cc1ccc(C)cc1
viscosity [mPa·s]
Conditions	298.15 K	303.15 K	313.15 K	323.15 K
101 kPa, x2 = 0.1	5.473	4.774	3.78	3.059
101 kPa, x2 = 0.2	3.996	3.557	2.865	2.378
101 kPa, x2 = 0.3	3.008	2.716	2.243	1.893
101 kPa, x2 = 0.4	2.311	2.107	1.782	1.528
101 kPa, x2 = 0.5	1.837	1.7	1.443	1.263
101 kPa, x2 = 0.6	1.38	1.295	1.098	0.944
101 kPa, x2 = 0.7	1.099	1.018	0.8763	0.7736
101 kPa, x2 = 0.8	0.8844	0.824	0.7219	0.6357
101 kPa, x2 = 0.9	0.731	0.6863	0.6047	0.5387
101.3 kPa, x2 = 0.02757	6.848	–	–	–
101.3 kPa, x2 = 0.05782	6.12	–	–	–
101.3 kPa, x2 = 0.09608	5.439	–	–	–
101.3 kPa, x2 = 0.1653	4.378	–	–	–
101.3 kPa, x2 = 0.2769	3.14	–	–	–
101.3 kPa, x2 = 0.355	2.505	–	–	–
101.3 kPa, x2 = 0.4708	1.842	–	–	–
101.3 kPa, x2 = 0.5471	1.542	–	–	–
101.3 kPa, x2 = 0.6377	1.231	–	–	–
101.3 kPa, x2 = 0.6871	1.093	–	–	–
101.3 kPa, x2 = 0.7745	0.899	–	–	–
101.3 kPa, x2 = 0.8554	0.772	–	–	–
101.3 kPa, x2 = 0.9319	0.668	–	–	–

CCCCCCn1cc[n+](C)c1.[Cl-] + CCCCCCn1cc[n+](C)c1.F[B-](F)(F)F
101 kPa
Conditions	viscosity [mPa·s]
303.15 K, x1 = 0.2	375.2
303.15 K, x1 = 0.4	795.2
308.15 K, x1 = 0.4	552.8
313.15 K, x1 = 0.4	394.5
318.15 K, x1 = 0.6	563.8
323.15 K, x1 = 0.6	403.5
323.15 K, x1 = 0.8	843.9

CC(C)NC(C)C + CNC(C)=O
308.15 K, 101 kPa
Conditions	viscosity [mPa·s]
x2 = 0.0739	0.3617
x2 = 0.2151	0.5132
x2 = 0.3226	0.7392
x2 = 0.4754	1.069
x2 = 0.6497	1.625
x2 = 0.786	2.167
x2 = 0.8761	2.652
x2 = 0.9277	2.973
x2 = 0.9762	3.194

CCC(=O)c1ccccc1 + CN(C)c1ccccc1
viscosity [mPa·s], 101 kPa
Conditions	303.15 K	308.15 K
x2 = 0.0658	1.475	1.429
x2 = 0.1256	1.445	1.398
x2 = 0.1989	1.411	1.362
x2 = 0.2531	1.388	1.338
x2 = 0.3331	1.358	1.305
x2 = 0.4074	1.332	1.279
x2 = 0.4755	1.309	1.254
x2 = 0.5265	1.293	1.237
x2 = 0.6121	1.268	1.21
x2 = 0.6923	1.249	1.187
x2 = 0.7625	1.229	1.167
x2 = 0.8156	1.217	1.155
x2 = 0.8625	1.208	1.144

CC(C)NC(C)C + CCCCCCCCCCO
viscosity [mPa·s], 101 kPa
Conditions	298.15 K	303.15 K	308.15 K
x1 = 0.0531	9.942	8.148	6.888
x1 = 0.1065	8.911	7.421	6.317
x1 = 0.1557	8.093	6.67	5.66
x1 = 0.2072	7.186	5.835	4.947
x1 = 0.2506	6.335	5.168	4.413
x1 = 0.3127	5.184	4.271	3.777
x1 = 0.4084	3.737	3.133	2.732
x1 = 0.5054	2.653	2.228	2.059
x1 = 0.6066	1.752	1.522	1.375
x1 = 0.7056	1.183	1.059	0.956
x1 = 0.8036	0.838	0.75	0.702
x1 = 0.853	0.689	0.628	0.587
x1 = 0.9073	0.531	0.494	0.467
x1 = 0.9521	0.459	0.43	0.358

NCc1ccccc1 + CCCC(C)O
viscosity [mPa·s], 101.33 kPa
Conditions	x1 = 0.1	x1 = 0.2002	x1 = 0.3001	x1 = 0.4001	x1 = 0.4997	x1 = 0.6	x1 = 0.6989	x1 = 0.8	x1 = 0.8998
298.15 K	3.179	2.906	2.676	2.466	2.274	2.11	1.976	1.854	1.75
303.15 K	2.626	2.395	2.192	2.038	1.893	1.765	1.666	1.587	1.532
308.15 K	2.199	2.034	1.884	1.759	1.642	1.559	1.482	1.436	1.401

C=CCN=C=S + NCCN
313.15 K, 100 kPa
Conditions	viscosity [mPa·s]
x1 = 0.15	2.956
x1 = 0.2794	6.678
x1 = 0.4515	71.46
x1 = 0.4948	155.4
x1 = 0.5496	648.5
x1 = 0.5994	2470
x1 = 0.667	61100
x1 = 0.7502	281.4
x1 = 0.851	55.46

O=S(=O)([O-])[O-].[Co+2] + O
viscosity, 101.33 kPa
Conditions	x1 = 0.000905	x1 = 0.002718	x1 = 0.00453	x1 = 0.006344	x1 = 0.008159	x1 = 0.04354	x1 = 0.05633
298.15 K	–	–	–	–	–	3.182 mPa·s	–
308.15 K	0.7454 mPa·s	0.799 mPa·s	0.8405 mPa·s	0.897 mPa·s	0.949 mPa·s	–	–
313.15 K	0.6751 mPa·s	0.7255 mPa·s	0.7615 mPa·s	0.814 mPa·s	0.8555 mPa·s	–	–
323.15 K	0.5699 mPa·s	0.6065 mPa·s	0.642 mPa·s	0.689 mPa·s	0.739 mPa·s	–	3.091 mPa·s and 3.091 mPa·s

CCCCCCCCCCCO + CCCCCCCO
viscosity [mPa·s]
Conditions	x2 = 0.1397	x2 = 0.2254	x2 = 0.388	x2 = 0.5976	x2 = 0.7764	x2 = 0.9311
293.15 K, 101 kPa	–	14.95	–	–	–	–
298.15 K, 101.8 kPa	12.82	–	10.49	8.805	7.365	6.099
308.15 K, 101.8 kPa	8.867	–	7.363	6.26	5.311	4.433
318.15 K, 101.8 kPa	6.299	–	5.309	4.554	3.906	3.289

C=C(C)C(=O)OCCCC + C1CCCCC1
viscosity [mPa·s], 101 kPa
Conditions	298.15 K	308.15 K
x1 = 0.056	0.866	0.737
x1 = 0.1555	0.835	0.711
x1 = 0.2562	0.812	0.692
x1 = 0.3534	0.797	0.68
x1 = 0.4548	0.789	0.673
x1 = 0.4924	0.788	0.673
x1 = 0.5528	0.788	0.673
x1 = 0.6497	0.794	0.678
x1 = 0.7645	0.81	0.692
x1 = 0.8529	0.83	0.708
x1 = 0.9568	0.861	0.735

CCCCCCCCCCCCCCCCCC + c1ccccc1
101 kPa, x2 = 0.5
Conditions	viscosity [mPa·s]
298 K	2.123
318 K	1.501

CC(CC(C)(C)C)CP(=O)([O-])CC(C)CC(C)(C)C.CCCCCCCC[P+](C)(C)C (centres undefined) + CCCCCCCCCCCC
viscosity [mPa·s], 101 kPa
Conditions	298.15 K	303.15 K	308.15 K	313.15 K	318.15 K	323.15 K
x2 = 0.24	172	129	99.8	79.4	63.3	51.3
x2 = 0.41	58.2	46	36.5	30	25	21.3
x2 = 0.55	23.8	20.1	17.1	14.9	12.9	–

FC(F)C(F)(F)F + FCF
viscosity [mPa·s], 101 kPa
Conditions	x1 = 0.247	x1 = 0.49	x1 = 0.744
298.15 K	0.1177	0.12	0.1269
313.15 K	–	–	0.1021

CC(C)(C)C(=O)O + CCCN(CCC)CCC
viscosity [mPa·s], 101 kPa
Conditions	293.15 K	298.15 K	303.15 K	308.15 K	313.15 K	318.15 K	323.15 K
x1 = 0.1	1.239	1.113	1.09	1.007	0.961	–	–
x1 = 0.2	1.593	1.416	1.371	1.265	1.163	1.088	1.017
x1 = 0.3	1.998	1.897	1.631	1.619	1.474	1.375	1.285
x1 = 0.4	3.304	2.795	2.479	2.325	2.14	1.94	1.79
x1 = 0.5	5.525	4.857	3.946	3.56	3.069	2.62	2.72
x1 = 0.6	14.34	11.43	9.15	7.47	6.17	5	4.15
x1 = 0.7	41.75	29.64	21.72	16.62	12.77	10.24	8.33
x1 = 0.725	62.84	43.6	31.12	22.68	17.62	14.04	11.21
x1 = 0.75	69.2	52.11	39.98	28.77	21.17	17.53	13.24
x1 = 0.8	54.33	40.03	28.38	21.17	16.84	13.12	10.81
x1 = 0.9	15.35	11.96	9.46	7.88	6.57	5.51	4.73

Source: the CheMixHub viscosity set
